In ChEMBL document CHEMBL3045770, “Design and synthesis of some thieno[2,3-c]pyridazine derivatives of expected anticancer activity” (2013):

Assays:
Format in all cases: functional
UACC-257 = test: Cytotoxicity against Homo sapiens (human) UACC257 assessed as cell growth at 10 uM after 48 hr by SRB assay relative to control; settings: UACC-257, 48 h, read-out: Activity
NCI-H322M = test: Cytotoxicity against Homo sapiens (human) NCI-H322M cells after 48 hr by SRB assay
CAKI-1 = test: Cytotoxicity against Homo sapiens (human) Caki1 assessed as cell growth at 10 uM after 48 hr by SRB assay relative to control; settings: CAKI-1, 48 h, read-out: Activity
BT-549 = test: Cytotoxicity against Homo sapiens (human) BT549 cells after 48 hr by SRB assay; settings: BT-549, 48 h
[1] = Cytotoxicity against Homo sapiens (human) NCI-ADR-RES assessed as cell growth at 10 uM after 48 hr by SRB assay relative to control; settings: read-out: Activity
SK-MEL-5 [2] = test: Cytotoxicity against Homo sapiens (human) SK-MEL-5 assessed as cell growth at 10 uM after 48 hr by SRB assay relative to control; settings: SK-MEL-5, 48 h, read-out: Activity
SR [3] = test: Cytotoxicity against Homo sapiens (human) SR assessed as cell growth at 10 uM after 48 hr by SRB assay relative to control; settings: read-out: Activity
M14 = test: Cytotoxicity against Homo sapiens (human) M14 assessed as cell growth at 10 uM after 48 hr by SRB assay relative to control; settings: M14, 48 h, read-out: Activity
OVCAR-3 [4] = test: Cytotoxicity against Homo sapiens (human) OVCAR3 cells after 48 hr by SRB assay; settings: OVCAR-3, 48 h
IGROV-1 = test: Cytotoxicity against Homo sapiens (human) IGROV1 cells after 48 hr by SRB assay; settings: IGROV-1, 48 h
SK-MEL-28 = test: Cytotoxicity against Homo sapiens (human) SK-MEL-28 cells after 48 hr by SRB assay; settings: SK-MEL-28, 48 h
UACC-62 = test: Cytotoxicity against Homo sapiens (human) UACC62 assessed as cell growth at 10 uM after 48 hr by SRB assay relative to control; settings: UACC-62, 48 h, read-out: Activity
SK-MEL-5 [5] = test: Cytotoxicity against Homo sapiens (human) SK-MEL-5 cells after 48 hr by SRB assay; settings: SK-MEL-5, 48 h
SK-MEL-2 = test: Cytotoxicity against Homo sapiens (human) SK-MEL-2 assessed as cell growth at 10 uM after 48 hr by SRB assay relative to control; settings: SK-MEL-2, 48 h, read-out: Activity
HCT-116 = test: Cytotoxicity against Homo sapiens (human) HCT116 assessed as cell growth at 10 uM after 48 hr by SRB assay relative to control; settings: HCT-116, 48 h, read-out: Activity
KM12 = test: Cytotoxicity against Homo sapiens (human) KM12 cells after 48 hr by SRB assay; settings: KM12, 48 h
786-0 = test: Cytotoxicity against Homo sapiens (human) 786-0 assessed as cell growth at 10 uM after 48 hr by SRB assay relative to control; settings: 786-0, 48 h, read-out: Activity
TK-10 = test: Cytotoxicity against Homo sapiens (human) TK10 assessed as cell growth at 10 uM after 48 hr by SRB assay relative to control; settings: TK-10, 48 h, read-out: Activity
T47D = test: Cytotoxicity against Homo sapiens (human) T47D assessed as cell growth at 10 uM after 48 hr by SRB assay relative to control; settings: read-out: Activity
U-251 = test: Cytotoxicity against Homo sapiens (human) U251 assessed as cell growth at 10 uM after 48 hr by SRB assay relative to control; settings: U-251, 48 h, read-out: Activity
SNB-19 = test: Cytotoxicity against Homo sapiens (human) SNB19 assessed as cell growth at 10 uM after 48 hr by SRB assay relative to control; settings: SNB-19, 48 h, read-out: Activity
SF-295 = test: Cytotoxicity against Homo sapiens (human) SF295 cells after 48 hr by SRB assay; settings: SF-295, 48 h
A549 = test: Cytotoxicity against Homo sapiens (human) A549 cells after 48 hr by SRB assay; settings: A549, 48 h
SF-539 = test: Cytotoxicity against Homo sapiens (human) SF539 assessed as cell growth at 10 uM after 48 hr by SRB assay relative to control; settings: SF-539, 48 h, read-out: Activity
OVCAR-3 [6] = test: Cytotoxicity against Homo sapiens (human) OVCAR3 assessed as cell growth at 10 uM after 48 hr by SRB assay relative to control; settings: OVCAR-3, 48 h, read-out: Activity
SR [7] = test: Cytotoxicity against Homo sapiens (human) SR cells after 48 hr by SRB assay
NCI-H522 = test: Cytotoxicity against Homo sapiens (human) NCI-H522 assessed as cell growth at 10 uM after 48 hr by SRB assay relative to control; settings: NCI-H522, 48 h, read-out: Activity
HL-60(TB) = test: Cytotoxicity against Homo sapiens (human) HL-60(TB) assessed as cell growth at 10 uM after 48 hr by SRB assay relative to control; settings: HL-60, 48 h, read-out: Activity
EKVX = test: Cytotoxicity against Homo sapiens (human) EKVX assessed as cell growth at 10 uM after 48 hr by SRB assay relative to control; settings: read-out: Activity
MCF7 = test: Cytotoxicity against Homo sapiens (human) MCF7 cells after 48 hr by SRB assay; settings: MCF7, 48 h
Hs-578T = test: Cytotoxicity against Homo sapiens (human) Hs 578T assessed as cell growth at 10 uM after 48 hr by SRB assay relative to control; settings: read-out: Activity
[8] = read-out: LC50 (the source's name)

Oc1c(-c2nnc(-c3ccc(Cl)cc3)o2)sc2nnc(-c3ccccc3)c(-c3ccccc3)c12
growth at 10 µM (UACC-257): 85%
GI50 (NCI-H322M): 4.17 µM
TGI (NCI-H322M): 10.6 µM
CC50 (NCI-H322M; [8]): 0.0183 µM
growth at 10 µM (CAKI-1): 24.5%
GI50 (BT-549): 1.01 µM
TGI (BT-549): 18.3 µM
growth at 10 µM [1]: 15.5%
growth at 10 µM (SK-MEL-5 [2]): 53.7%
growth at 10 µM (SR [3]): 35.1%
growth at 10 µM (M14): 55.3%
GI50 (OVCAR-3 [4]): 3.77 µM
TGI (OVCAR-3 [4]): 6.1 µM
GI50 (IGROV-1): 3.66 µM
TGI (IGROV-1): 6.35 µM
CC50 (IGROV-1; [8]): 0.0183 µM
GI50 (SK-MEL-28): 1.14 µM
TGI (SK-MEL-28): 18.3 µM
CC50 (SK-MEL-28; [8]): 0.0183 µM
growth at 10 µM (UACC-62): 38%
GI50 (SK-MEL-5 [5]): 5.41 µM
TGI (SK-MEL-5 [5]): 9.1 µM
CC50 (SK-MEL-5 [5]; [8]): 0.0136 µM
growth at 10 µM (SK-MEL-2): 87.1%
growth at 10 µM (HCT-116): 19.3%
GI50 (KM12): 4.7 µM
TGI (KM12): 15 µM
CC50 (KM12; [8]): 0.0183 µM
growth at 10 µM (786-0): 61.1%
growth at 10 µM (TK-10): 59%
growth at 10 µM (T47D): 53%
growth at 10 µM (U-251): 32.6%
growth at 10 µM (SNB-19): 43.9%
GI50 (SF-295): 3.28 µM
TGI (SF-295): 8.15 µM
GI50 (A549): 4.65 µM
TGI (A549): 14.8 µM
CC50 (A549; [8]): 0.0183 µM
growth at 10 µM (SF-539): 55%
growth at 10 µM (OVCAR-3 [6]): 26%
GI50 (SR [7]): 4.52 µM
TGI (SR [7]): 18.3 µM
growth at 10 µM (NCI-H522): 75.1%
growth at 10 µM (HL-60(TB)): 52.5%
growth at 10 µM (EKVX): 58.5%
GI50 (MCF7): 4.43 µM
TGI (MCF7): 18.3 µM
CC50 (MCF7; [8]): 0.0183 µM
growth at 10 µM (Hs-578T): 62.4%
